These results are taken from patent US20250122174A1 (Shenzhen Yuanli Shenwan Innovative Medicine Co., Ltd., priority 2022, published 2025).

The IC50 is the concentration that gives 50% inhibition. Read a low IC50 as greater potency in that assay.

SMILES strings stand for the structures. A value given as a limit tells only on which side of the number the result lay.

Chain of HPK1 (Q92918 1-346 limits assumed): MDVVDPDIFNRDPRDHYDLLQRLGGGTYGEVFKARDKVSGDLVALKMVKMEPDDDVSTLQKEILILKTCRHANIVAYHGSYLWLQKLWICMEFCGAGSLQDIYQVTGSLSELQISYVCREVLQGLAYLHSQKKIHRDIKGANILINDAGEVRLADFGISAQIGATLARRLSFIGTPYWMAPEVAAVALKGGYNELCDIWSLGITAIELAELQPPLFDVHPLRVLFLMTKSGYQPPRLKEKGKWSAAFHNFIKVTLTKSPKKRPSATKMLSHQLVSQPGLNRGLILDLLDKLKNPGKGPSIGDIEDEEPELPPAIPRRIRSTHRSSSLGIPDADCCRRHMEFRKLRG

The assay deals with HPK1 (Homo sapiens (Human), UniProt Q92918). Description: HPK1 Inhibition Assay (ADP-Glo kinase assay). The format is biochemical. Particulars: ATP 10 μM. An outline of the steps:
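ADP-Glo luminescence read-out after 1 h room-temperature kinase reaction with 10 μM ATP and 0.1 μg/ml MBP. Recombinant human HPK1 at 7.5 ng/μl; buffer 40 mM Tris pH 7.5, 20 mM MgCl2. Compounds serially diluted 5-fold over 10 points from 10 mM DMSO stock.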
For orientation: ADP-Glo first removes unused ATP, then detects ADP through luciferase.
Consider `[2H]C([2H])([2H])C(n1ncc2c(N3C[C@H](N)C(C)(C)C3)c(NC(=O)c3ccc(=O)n(-c4c(F)cccc4F)n3)ccc21)C([2H])([2H])[2H]` [Example 279, (R)-N-(4-(4-amino-3,3-dimethylpyrrolidin-1-yl)-1-(propan-2-yl-1,1,1,3,3,3-d6)-1H-indazol-5-yl)-1-(2,6-difluorophenyl)-6-oxo-1,6-dihydropyridazine-3-carboxamide], for which the IC50 is below 100 nM.
Under `[2H]C([2H])([2H])C(n1ncc2c(N3C[C@@H](N)C(C)(C)C3)c(NC(=O)c3ccc(=O)n(-c4c(F)cccc4F)n3)ccc21)C([2H])([2H])[2H]` [Example 280, (S)-N-(4-(4-amino-3,3-dimethylpyrrolidin-1-yl)-1-(propan-2-yl-1,1,1,3,3,3-d6)-1H-indazol-5-yl)-1-(2,6-difluorophenyl)-6-oxo-1,6-dihydropyridazine-3-carboxamide] stands below 100 nM; under `[2H]C([2H])([2H])C([2H])(n1ncc2c(N3C[C@H](N)C(C)(C)C3)c(NC(=O)c3ccc(=O)n(-c4c(F)cccc4F)n3)ccc21)C([2H])([2H])[2H]` [Example 281, (R)-N-(4-(4-amino-3,3-dimethylpyrrolidin-1-yl)-1-(propan-2-yl-d7)-1H-indazol-5-yl)-1-(2,6-difluorophenyl)-6-oxo-1,6-dihydropyridazine-3-carboxamide], below 100 nM; under `[2H]C([2H])([2H])C([2H])(n1ncc2c(N3C[C@@H](N)C(C)(C)C3)c(NC(=O)c3ccc(=O)n(-c4c(F)cccc4F)n3)ccc21)C([2H])([2H])[2H]` [Example 282, (S)-N-(4-(4-amino-3,3-dimethylpyrrolidin-1-yl)-1-(propan-2-yl-d7)-1H-indaozl-5-yl)-1-(2,6-difluorophenyl)-6-oxo-1,6-dihydropyridazine-3-carboxamide], below 100 nM.
Under `COCCn1ncc2c(N3C[C@@H](C)[C@@H](N)C3)c(NC(=O)c3ccc(=O)n(-c4c(F)cccc4F)n3)ccc21` [Example 283, N-(4-((3R,4R)-3-amino-4-methylpyrrolidin-1-yl)-1-(2-methoxyethyl)-1H-indazol-5-yl)-1-(2,6-difluorophenyl)-6-oxo-1,6-dihydropyridazine-3-carboxamide] stands below 100 nM; under `COCCn1ncc2c(N3CCC(N)CC3)c(NC(=O)c3ccc(=O)n(-c4c(F)cccc4F)n3)cc(F)c21` [Example 284, N-(4-(4-aminopiperidin-1-yl)-7-fluoro-1-(2-methoxyethyl)-1H-indazol-5-yl)-1-(2,6-difluorophenyl)-6-oxo-1,6-dihydropyridazine-3-carboxamide], below 100 nM.
`COCCn1ncc2c(N3CC[C@@H](N)C3)c(NC(=O)c3ccc(=O)n(-c4c(F)cccc4F)n3)ccc21` [Example 285, (R)-N-(4-(3-aminopyrrolidin-1-yl)-1-(2-methoxyethyl)-1H-indazol-5-yl)-1-(2,6-difluorophenyl)-6-oxo-1,6-dihydropyridazine-3-carboxamide] registered a half-inhibitory concentration (IC50) below 100 nM.
Next, `COCCn1ncc2c(N3CCC[C@@H](N)C3)c(NC(=O)c3ccc(=O)n(-c4c(F)cccc4F)n3)cc(F)c21` [Example 286, (R)-N-(4-(3-aminopiperidin-1-yl)-7-fluoro-1-(2-methoxyethyl)-1H-indazol-5-yl)-1-(2,6-difluorophenyl)-6-oxo-1,6-dihydropyridazine-3-carboxamide]: below 100 nM; `N[C@@H]1CCN(c2c(NC(=O)c3ccc(=O)n(-c4c(F)cccc4F)n3)ccc3c2cnn3C2CCCC2)C1` [Example 287, (R)-N-(4-(3-aminopyrrolidin-1-yl)-1-cyclopentyl-1H-indazol-5-yl)-1-(2,6-difluorophenyl)-6-oxo-1,6-dihydropyridazine-3-carboxamide]: below 100 nM.
Next, `C[C@@H]1CN(c2c(NC(=O)c3ccc(=O)n(-c4c(F)cccc4F)n3)ccc3c2cnn3C2CCCC2)C[C@@H]1N` [Example 288, N-(4-((3R,4R)-3-amino-4-methylpyrrolidin-1-yl)-1-cyclopentyl-1H-indazol-5-yl)-1-(2,6-difluorophenyl)-6-oxo-1,6-dihydropyridazine-3-carboxamide34]: below 100 nM; `CCn1ncc2c(N3CC[C@@H](N)C3)c(NC(=O)c3ccc(=O)n(-c4c(F)cccc4F)n3)cc(F)c21` [Example 289, (R)-N-(4-(3-aminopyrrolidin-1-yl)-1-ethyl-7-fluoro-1H-indazol-5-yl)-1-(2,6-difluorophenyl)-6-oxo-1,6-dihydropyridazine-3-carboxamide]: below 100 nM.
Under `N[C@@H]1CCN(c2c(NC(=O)c3ccc(=O)n(-c4c(F)cccc4F)n3)ccc3c2cnn3CC(F)(F)F)C1` [Example 290, (R)-N-(4-(3-aminopyrrolidin-1-yl)-1-(2,2,2-trifluoroethyl)-1H-indazol-5-yl)-1-(2,6-difluorophenyl)-6-oxo-1,6-dihydropyridazine-3-carboxamide] stands below 100 nM; under `C[C@@H]1CN(c2c(NC(=O)c3ccc(=O)n(-c4c(F)cccc4F)n3)ccc3c2cnn3CC(F)(F)F)C[C@@H]1N` [Example 291, N-(4-((3R,4R)-3-amino-4-methylpyrrolidin-1-yl)-1-(2,2,2-trifluoroethyl)-1H-indazol-5-yl)-1-(2,6-difluorophenyl)-6-oxo-1,6-dihydropyridazine-3-carboxamide], below 100 nM.
In the case of `CCn1ncc2c(N3CC[C@@H](N)C3)c(NC(=O)c3ccc(=O)n(-c4c(F)cccc4F)n3)ccc21` [Example 292, (R)-N-(4-(3-aminopyrrolidin-1-yl)-1-ethyl-1H-indazol-5-yl)-1-(2,6-difluorophenyl)-6-oxo-1,6-dihydropyridazine-3-carboxamide], the IC50 is below 100 nM.
In turn, `COCCn1ncc2c(N3CC[C@@H](N)C3)c(NC(=O)c3ccc(=O)n(-c4c(F)cccc4F)n3)cc(F)c21` [Example 293, (R)-N-(4-(3-aminopyrrolidin-1-yl)-7-fluoro-1-(2-methoxyethyl)-1H-indazol-5-yl)-1-(2,6-difluorophenyl)-6-oxo-1,6-dihydropyridazine-3-carboxamide] came in with an IC50 below 100 nM.
The compound `CC(C)Cn1ncc2c(N3CC[C@@H](N)C3)c(NC(=O)c3ccc(=O)n(-c4c(F)cccc4F)n3)ccc21` [Example 294, (R)-N-(4-(3-aminopyrrolidin-1-yl)-1-isobutyl-1H-indazol-5-yl)-1-(2,6-difluorophenyl)-6-oxo-1,6-dihydropyridazine-3-carboxamide] displayed an IC50 below 100 nM.
Next, `N[C@@H]1CCN(c2c(NC(=O)c3ccc(=O)n(-c4c(F)cccc4F)n3)ccc3c2cnn3CC2CC2)C1` [Example 295, (R)-N-(4-(3-aminopyrrolidin-1-yl)-1-(cyclopropylmethyl)-1H-indazol-5-yl)-1-(2,6-difluorophenyl)-6-oxo-1,6-dihydropyridazine-3-carboxamide]: below 100 nM.
Next, `C[C@@H]1CN(c2c(NC(=O)c3ccc(=O)n(-c4c(F)cccc4F)n3)ccc3c2cnn3C2CCC2)C[C@@H]1N` [Example 296, N-(4-((3R,4R)-3-amino-4-methylpyrrolidin-1-yl)-1-cyclobutyl-1H-indazol-5-yl)-1-(2,6-difluorophenyl)-6-oxo-1,6-dihydropyridazine-3-carboxamide]: below 100 nM; `C[C@@H]1CN(c2c(NC(=O)c3ccc(=O)n(-c4c(F)cccc4F)n3)ccc3c2cnn3C2CCCCC2)C[C@@H]1N` [Example 297, N-(4-((3R,4R)-3-amino-4-methylpyrrolidin-1-yl)-1-cyclohexyl-1H-indazol-5-yl)-1-(2,6-difluorophenyl)-6-oxo-1,6-dihydropyridazine-3-carboxamide]: below 100 nM.
Under `C[C@@H]1CN(c2c(NC(=O)c3ccc(=O)n(-c4c(F)cccc4F)n3)ccc3c2cnn3C2CC2)C[C@@H]1N` [Example 298, N-[4-[(3R,4R)-3-amino-4-methyl-pyrrolidin-1-yl]-1-cyclopropyl-indazol-5-yl]-1-(2,6-difluorophenyl)-6-oxo-pyridazine-3-carboxamide] stands below 100 nM; under `C[C@H]1CN(c2c(NC(=O)c3ccc(=O)n(-c4c(F)cccc4F)n3)ccc3c2cnn3C2CC2)C[C@@H]1N` [Example 299, N-(4-((3R,4S)-3-amino-4-methylpyrrolidin-1-yl)-1-cyclopropyl-1H-indazol-5-yl)-1-(2,6-difluorophenyl)-6-oxo-1,6-dihydropyridazine-3-carboxamide], below 100 nM; under `N[C@H]1CN(c2c(NC(=O)c3ccc(=O)n(-c4c(F)cccc4F)n3)ccc3c2cnn3C2CC2)CC12CC2` [Example 300, (R)-N-(4-(7-amino-5-azaspiro[2.4]heptan-5-yl)-1-cyclopropyl-1H-indazol-5-yl)-1-(2,6-difluorophenyl)-6-oxo-1,6-dihydropyridazine-3-carboxamide], below 100 nM.
As for `N[C@@H]1CCN(c2c(NC(=O)c3ccc(=O)n(-c4c(F)cccc4F)n3)ccc3c2cnn3C2CC2)C1` [Example 301, (R)-N-(4-(3-aminopyrrolidin-1-yl)-1-cyclopropyl-1H-indazol-5-yl)-1-(2,6-difluorophenyl)-6-oxo-1,6-dihydropyridazine-3-carboxamide], the IC50 was below 100 nM.
Next, `CC(C)(C)n1ncc2c(N3C[C@H](N)C4(CC4)C3)c(NC(=O)c3ccc(=O)n(-c4c(F)cccc4F)n3)ccc21` [Example 302, N-[4-[(7R)-7-amino-5-azaspiro[2.4]heptan-5-yl]-1-tert-butyl-indazol-5-yl]-1-(2,6-difluorophenyl)-6-oxo-pyridazine-3-carboxamide]: below 100 nM; `C[C@@H]1CN(c2c(NC(=O)c3ccc(=O)n(-c4c(F)cccc4F)n3)ccc3c2cnn3C(C)(C)C)C[C@@H]1N` [Example 303, N-(4-((3R,4R)-3-amino-4-methylpyrrolidin-1-yl)-1-(tert-butyl)-1H-indazol-5-yl)-1-(2,6-difluorophenyl)-6-oxo-1,6-dihydropyridazine-3-carboxamide]: below 100 nM.
